Results published in US10214502B2, “Method of inhibiting apolipoprotein-E expression while increasing expression of at least one of LDL-receptor protein or AbcA1 protein comprising administering a small compound” (California State University, Fresno, priority 2016, dated 2019).

Tested on: apoE3
Assay: ELISA of apoE3 levels in conditioned media of compound-treated mouse cortical astrocyte cells
Format: cell-based
Conditions: for ApoE3 Levels in Cell Media, Average of Three Tests / ApoE3 Levels in Cell Media, Test 1 / ApoE3 Levels in Cell Media, Test 2 / ApoE3 Levels in Cell Media, Test 3: 10 μM compound, 24 hours, normalized to cell protein, relative to DMSO treated cells
Description: ApoE inhibition can be readily determined by any one of several assays and techniques known to those of ordinary skill in the art, including the enzyme-linked immunosorbant assay (ELISA). In the experimental results shown in Table 2 and FIG. 5, the ELISA assay was carried out on cortical astrocyte cells from mice. Astrocyte cells produce apoE, LDLR and AbcA1 proteins.
The experiments involved treating mouse cortical astrocyte cells with the claimed compounds at 10 μM concentration for an incubation time of 24 hrs. DMSO solvent was used as a negative control, because the compounds were dissolved in DMSO when applied to the cells.
The ELISA technique involves immobilizing an apoE-specific capture antibody to a 96-well plate, addition of sample (conditioned medium from mouse cortical astrocyte cells treated with the compound for 24 hours), and detection of the bound apoE using a second apoE-specific biotinylated antibody and streptavidin-HRP.
The Mabtech ELISA kit detects the presence of the three apoE isoforms: apoE2, apoE3, and apoE4.
To obtain the data shown in Table 2 and FIG. 5, the mouse cortical astrocyte cells were maintained in DMEM medium (Invitrogen) supplemented with 10 mM HEPES, 1 mM sodium pyruvate, 4.5 g/L glucose, 1% penicillin/streptomycin, and 10% fetal bovine growth serum (Invitrogen) at 37° C., with 5% CO2.
The cells (6×10^4 cells/24-well plate) were grown for 1 day in RPMI, followed by a 24 hour equilibration in serum-free Opti-MEM (Life Technologies). Treatments were carried out in triplicate with […] of fresh Opti-MEM containing 10 μM of compound or vehicle (0.1% DMSO) for 24 hours. […] ApoE concentration in the sample was calculated based on a standard curve derived using known amounts of purified apoE (from Biodesign).
The protein levels in the cells in the 24-well plates were measured using BCA Protein Assay Kit (from Pierce) and used to normalize the data. […] Sample apoE3 concentrations were represented relative to the DMSO treated cells.
The bars in FIG. 5 reflect the respective mean level apoE3 in the media for each compound with an indication of one […].

Row | Structure (SMILES) | ApoE3 Levels in Cell Media, Average of Three Tests | ApoE3 Levels in Cell Media, Test 1 | ApoE3 Levels in Cell Media, Test 2 | ApoE3 Levels in Cell Media, Test 3 | apoE (apoE3) expression compared to the control DMSO, in words (10 μM, 24 hrs, ELISA of media)
1 | O=S(=O)(NC1CCCCC1)c1cccc2ccccc12 [Compound 124] | 95.1 % of the DMSO control | 96.7646 % of the DMSO control | 90.1191 % of the DMSO control | 98.42 % of the DMSO control | –
2 | O=C(c1ccc2ccccc2c1)N1CCCCC1 [Compound 92] | 115.1327 % of the DMSO control | 128.0284 % of the DMSO control | 127.4327 % of the DMSO control | 89.94 % of the DMSO control | –
3 | CC(NS(=O)(=O)c1ccc2ccccc2c1)c1ccccc1 (stereo not drawn) [Compound 131] | 85.9 % of the DMSO control | 78.38 % of the DMSO control | 91.41 % of the DMSO control | 87.92 % of the DMSO control | –
4 | O=C(c1ccc2ccccc2c1)N1CCOCC1 [Compound 90] | 98.59 % of the DMSO control | 90.22 % of the DMSO control | 91.69 % of the DMSO control | 113.8441 % of the DMSO control | –
5 | O=S(=O)(c1cccc2ccccc12)N1CCCCC1 [Compound 122] | 92.0952 % of the DMSO control | 100.1387 % of the DMSO control | 96.02 % of the DMSO control | 80.1244 % of the DMSO control | –
6 | c1ccc2cc(CN3CCOCC3)ccc2c1 [Compound 138] | 104.8487 % of the DMSO control | 103.8509 % of the DMSO control | 97.61 % of the DMSO control | 113.0808 % of the DMSO control | –
7 | COc1ccc(NC(=O)c2ccc3ccccc3c2)cc1 [Compound 99] | 104.5892 % of the DMSO control | 106.2723 % of the DMSO control | 116.3467 % of the DMSO control | 91.15 % of the DMSO control | –
8 | CCCCN(CCCC)S(=O)(=O)c1ccc2ccccc2c1 [Compound 128] | 83.97 % of the DMSO control | 85.63 % of the DMSO control | 91.51 % of the DMSO control | 74.78 % of the DMSO control | –
9 | COc1cccc(NC(=O)c2ccc3ccccc3c2)c1 [Compound 100] | 84.98 % of the DMSO control | 91.06 % of the DMSO control | 75.01 % of the DMSO control | 88.88 % of the DMSO control | –
10 | O=S(=O)(NCc1ccccc1)c1ccc(-c2ccccc2)cc1 [Compound 135] | 99.36 % of the DMSO control | 93.55 % of the DMSO control | 101.8388 % of the DMSO control | 102.6888 % of the DMSO control | –
11 | CC(C)CNS(=O)(=O)c1ccc2ccccc2c1 [Compound 94] | 106.8342 % of the DMSO control | 99.12 % of the DMSO control | 91.64 % of the DMSO control | 129.7451 % of the DMSO control | –
12 | CC(C)CNS(=O)(=O)c1cccc2ccccc12 [Compound 121] | 113.6663 % of the DMSO control | 113.2938 % of the DMSO control | 128.755 % of the DMSO control | 98.9502 % of the DMSO control | –
13 | CCC(C)NS(=O)(=O)c1ccc(-c2ccccc2)cc1 (stereo not drawn) [Compound 132] | 86.84 % of the DMSO control | 81.51 % of the DMSO control | 85.61 % of the DMSO control | 93.42 % of the DMSO control | –
14 | CC(C)CNC(c1ccccc1)(c1ccccc1)c1ccc2ccccc2c1 [Triarylmethyl Amine Compound No. 43, reference compound] | 82.46 % of the DMSO control | 86.35 % of the DMSO control | 74.72 % of the DMSO control | 86.32 % of the DMSO control | effectively decrease
15 | CCC(C)NS(=O)(=O)c1cccc2ccccc12 (stereo not drawn) [Compound 120] | 88.28 % of the DMSO control | 100.2942 % of the DMSO control | 88.31 % of the DMSO control | 76.25 % of the DMSO control | –
16 | CCC(C)NS(=O)(=O)c1ccc2ccccc2c1 (stereo not drawn) [Compound 93] | 102.6197 % of the DMSO control | 103.3801 % of the DMSO control | 109.2249 % of the DMSO control | 95.25 % of the DMSO control | –
17 | c1ccc2cc(CN3CCCCC3)ccc2c1 [Compound 141] | 80.31 % of the DMSO control | 80.57 % of the DMSO control | 95.09 % of the DMSO control | 65.29 % of the DMSO control | –
18 | CCN(CC)S(=O)(=O)c1cccc2ccccc12 [Compound 126] | 89.15 % of the DMSO control | 93.7 % of the DMSO control | 89.1 % of the DMSO control | 84.66 % of the DMSO control | –
19 | O=C(Nc1ccc(Br)cc1)c1ccc2ccccc2c1 [Compound 101] | 96.05 % of the DMSO control | 93.29 % of the DMSO control | 88.21 % of the DMSO control | 106.6434 % of the DMSO control | –
20 | O=S(=O)(c1cccc2ccccc12)N1CCCC1 [Compound 123] | 98.83 % of the DMSO control | 85.69 % of the DMSO control | 90.18 % of the DMSO control | 120.6126 % of the DMSO control | –
21 | O=S(=O)(Nc1ccccc1)c1ccc2ccccc2c1 [Compound 102] | 97.14 % of the DMSO control | 95.99 % of the DMSO control | 98.8 % of the DMSO control | 96.62 % of the DMSO control | –
22 | O=C(c1ccc2ccccc2c1)N1CCCC1 [Compound 91] | 104.6561 % of the DMSO control | 126.8225 % of the DMSO control | 87.2 % of the DMSO control | 99.94 % of the DMSO control | –
23 | CC(C)N(C(C)C)S(=O)(=O)c1ccc2ccccc2c1 [Compound 130] | 89.39 % of the DMSO control | 89.06 % of the DMSO control | 79.12 % of the DMSO control | 100.0032 % of the DMSO control | –
